Measurements published in patent US20050148514A1, “Method and composition for treatment of angiogenesis” (priority 2003, published 2005).
“Also recorded” adds a separate entry of the source. Where no end group is shown, it is not given here.

What was measured:
[1] = tested on: MAPK/JNK pathway (SRE); assay: SEAP gene-reporter assay in U-87 glioma cells, SRE element; format: cell-based; conditions: alkaline phosphatase activity in extracellular media
Procedure: In order to investigate the potential intracellular pathways triggered by the PCK3145 derivative, a gene-reporter assay using the SEAP (Secreted Alkaline Phosphatase) Mercury Profiling Kit (CLONTECH) was performed in glioma cells (U-87). This assay enables the monitoring of transcription factors that are triggered by a particular experimental condition by assaying the alkaline phosphatase activity in the extracellular media. […] The induction of the MAPK pathway by the PCK3145 derivative is further confirmed by the rapid and transient induction of ERK phosphorylation between 5-10 minutes (FIG. 8B) and is shown to be dose-dependent (FIG. 8C). Finally, the effects of the PCK3145 derivative were also compared to those of a scrambled peptide.

[2] = tested on: total MMP-9, i.e., human active and pro-MMP-9; assay: Total MMP-9 ELISA (Quantikine) on plasma of prostate cancer patients treated with the drug; format: in vivo; conditions: for MMP-9 level in plasma, D27C1: day 27 of treatment cycle 1; for Maximum Reduction of MMP-9: versus baseline D1C1; for MMP-9 level in plasma, D27C2: day 27 of treatment cycle 2
Procedure: The reconstituted drug used in the present example is made from a solution containing a 20 mg/mL of PCK3145 derivative (SEQ ID NO.:5 derivative); SEQ ID NO.: 7, in a phosphate buffer at pH 7.4 for dilution in sterile saline (0.9% NaCl, BP) prior to intravenous administration. The solutions is filled into Type 1 glass vials, stoppered with Teflon®-faced butyl stoppers, and sealed with flip-off seals.
The drug was administered to patients characterized as having metastatic adenocarcinoma of the prostate, stage 1V prostatic cancer and as having a metastatic hormone resistant prostatic cancer.
Biological samples were drawn during different time points. Plasma samples were placed on dry ice and stored frozen (approximately −70° C.) and subsequently analyzed for total MM P-9 levels.
MMP-9 assay methodology. An Elisa assay measuring total MMP-9, i.e., human active and pro-MMP-9, (Quantikine®, Cat. No.: DMP900, R&D Systems Inc.) was performed on plasma-heparin samples. Plasma samples have been collected from individuals at day 1 (before treatment) and at day 27 of each treatment cycle.
The Quantikine® MMP-9 immunoassay is a solid phase ELISA designed to measure total MMP-9 (92 kDa pro- and 82 kDa active forms) in serum, plasma, saliva, urine and cell culture supernatants. It is calibrated with CHO-cells expressed recombinant human pro-MMP-9 and the antibodies were raised against the recombinant factor. Both antibodies also recognize recombinant human active MMP-9.
The assay employs the quantitative sandwich enzyme immunoassay technique. A monoclonal antibody specific for MMP-9 has been pre-coated onto a microplate. Standards and samples are added into the wells, and MMP-9 is thus bound by the immobilized antibody. After washing away unbound substances, an enzyme-linked polyclonal antibody specific for MMP-9 is added to the wells. Following a wash to remove unbound antibody-enzyme reagent, a substrate solution is added to the wells and color develops in proportion to the amount of total MMP-9 (pro and/or active) bound in the initial step. The color development is stopped and the intensity of the color is measured.
Results of MMP-9 levels in patient's plasma, before and after one or more treatment cycle with PCK3145 derivative; SEQ ID NO.: 7 are illustrated in Table 2.
Normal values of healthy volunteers were not determined in this study but lizasa et al., has determined that the normal range of plasma MMP-9 concentrations is about 11.4 to 59.4 ng/ml. Based on theses values, patients were sub-divided into two categories; those having normal value of MMP-9 (below 100 μg/L) and those having an elevated level of MMP-9 (higher than 100 μg/L) at baseline (see column identified as D1C1 in Table2).

[3] = tested on: MMP-9; assay: Gelatin zymography of culture media of MatLyLu tumor cells; format: cell-based; conditions: 50 ug/ml collagen type-I, 500 ug/ml and 1 mg/ml, 72 hrs, serum free
Procedure: Zymography. Zymography is a technique generally used to analyze the activity of matrix metalloproteinases (MMPs) in biological samples. It involves the electrophoretic separation of proteins under denaturing (Sodium Dodecyl Sulfate (SDS)) but non-reducing conditions through a polyacrylamide gel containing gelatin (for example, 10% gel containing 1 mg/ml gelatin for MMP-9 and MMP-2 assays). The resolved proteins are re-natured by exchanging SDS with a non-ionic detergent such as Triton X-100 and the gel is incubated in an incubation buffer for activation of MMP-2 and MMP-9 (for example at 37° C. for 18 hrs). The gel is stained with Coomassie blue and the MMP-2 and MMP-9 bands may be visualized as clear bands against a blue background (i.e., the MMPs degrade the gelatin and are visualized as clear bands; pro MMP-2 is 68 kDa and pro-MMP-9 is 92 kDa). These bands can be quantified using densitometry.
In the experiment presented in FIG. 1, 2.5×10^5 MatLyLu tumor cells (American Type Culture Collection No.: JHU-5)) were seeded in T-25 flasks containing RPMI with 10% fetal bovine serum (FBS). […]
The media were collected after 72 hours of exposure to the PCK3145 derivative and subjected to gelatin zymography. […] The band intensities were determined using the Image Quant software (version 5.0) from molecular Dynamics. […]

For “EWQTDNCETCTCYET (cysteine pairing not given here)”, the “SEAP reporter, MAPK/JNK pathway (SRE)” value [1] was “triggers significantly; also recorded: extremely strong”, the “change in MMP-9 levels compared to baseline” value (from here on “change in MMP-9 levels”) ([2]; elevated MMP-9 category (patients A, B, C and D), each patient after one cycle of treatment) was “significant decrease” and the “change in MMP-9 levels” value ([2]; normal value MMP-9 category (patients E, F, G, H and I), after one cycle of treatment) was “no significant decrease”. The “decrease in MMP-9 levels compared to baseline levels” value ([2]; patient A, after one cycle of treatment) was “up to 89%”, the “MMP-9 level in plasma, D27C1” value ([2]; patient A, elevated MMP-9 (baseline D1C1 424)) was 47.3 µg/L and the “Maximum Reduction of MMP-9” value ([2]; patient A) was 89%. For the same sequence, the “decrease in MMP-9” value ([2]; patient B, after cycle 1) was 41%, the “MMP-9 level in plasma, D27C1” value ([2]; patient B, elevated MMP-9 (baseline D1C1 156.5)) was 91.6 µg/L and the “reduction of baseline level of MMP-9” value ([2]; patient B, treatment cycle 2) was 64%. For the same sequence, the “reduction of baseline level of MMP-9” value ([2]; patient B, treatment cycle 3) was 65%, the “reduction of baseline level of MMP-9” value ([2]; patient B, treatment cycle 4) was 75% and the “Maximum Reduction of MMP-9” value ([2]; patient B) was 75%. The “decrease in MMP-9” value ([2]; patient C, at cycle 1) was 90%, the “reduction in MMP-9 levels” value ([2]; patient C, cycle 2) was 76% and the “MMP-9 level in plasma, D27C1” value ([2]; patient C, elevated MMP-9 (baseline D1C1 155)) was 14.9 µg/L. For the same sequence, the “Maximum Reduction of MMP-9” value ([2]; patient C) was 90%, the “decrease in MMP-9” value ([2]; patient D, at cycle 1) was 34% and the “MMP-9 level in plasma, D27C1” value ([2]; patient D, elevated MMP-9 (baseline D1C1 130.2)) was 85.2 µg/L. The “Maximum Reduction of MMP-9” value ([2]; patient D) was 34%, the “MMP-9 level in plasma, D27C2” value ([2]; patient E (baseline D1C1 57.5)) was 60.1 µg/L and the “change in MMP-9 levels” value ([2]; patient E, after 3 cycles of treatment) was “still no MMP-9 decrease”. The “MMP-9 level in plasma, D27C1” value ([2]; patient E, normal MMP-9 (baseline D1C1 57.5)) was 58 µg/L, the “MMP-9 level in plasma, D27C1” value ([2]; patient F, normal MMP-9 (baseline D1C1 53.2)) was 73.1 µg/L and the “MMP-9 level in plasma, D27C2” value ([2]; patient G (baseline D1C1 33.9)) was 189.6 µg/L. For the same sequence, the “MMP-9 level in plasma, D27C1” value ([2]; patient G, normal MMP-9 (baseline D1C1 33.9)) was 45.4 µg/L, the “MMP-9 level in plasma, D27C2” value ([2]; patient H (baseline D1C1 57.0)) was 65 µg/L and the “MMP-9 level in plasma, D27C1” value ([2]; patient H, normal MMP-9 (baseline D1C1 57.0)) was 44.0 µg/L. The “MMP-9 level in plasma, D27C1” value ([2]; patient I, normal MMP-9 (baseline D1C1 22.1)) was 18.8 µg/L, the “change in MMP-9 levels” value ([2]; patients E and G, after 2 cycles of treatment) was “no decrease in MMP-9 levels was observed” and the “MMP-9 secreted in the cell culture media, zymography” value [3] was “dose-dependent reduction”.
